Assay results as given in patent publication US20050203011A1, “Mitigating symptoms and behaviors of substance abuse by modulating GDNF or BDNF pathway activity” (The Regents of the University of California, priority 2003, published 2005).

Assays:
ERK1/2 = ERK1/2 phosphorylation in SHSY5Y cells; type: cell-based, human; details: 10 μM ibogaine
Procedure: ERK2 and pERK1/2 were detected by Western blot analysis with anti-ERK2 and pERK1/2 antibodies respectively. Line-graph depicts the mean ratio (pERK2/ERK2)±SD of 3 experiments. […] Panel C: Cells were pre-incubated with 0.3 unit/ml PI-PLC for 1 h (lane 3).

[1] = tested on: Ret association with GFRα1; experiment: Ret association with GFRα1 in SHSY5Y cells (immunoprecipitation, Western blot); type: cell-based, human; details: 3 hours
Procedure: Expression of GDNF and control Actin were analyzed by RT-PCR (n=4). […] GDNF in the media was detected by an ELISA assay. Histogram depicts the mean±SD of GDNF secretion in 3 experiments. […] Ret was immunoprecipitated with anti-Ret antibodies followed by Western blot analysis with anti GFRα1 antibodies. The levels of GFRα1 in the homogenates were determined by Western blot analysis (n=3). […] Ret was immunoprecipitated followed by Western blot analysis with anti-phospho tyrosine or anti-Ret antibodies (n=3). […] Trk phosphorylation was analyzed by Western blot analysis with anti-phospho-Trk antibodies. The levels of TrkB were also determined by Western blot analysis (n=3). Panel F: Cells were pre-incubated with 0.3 unit/ml PI-PLC for 1 h (lanes 3 and 4). […] Ret phosphorylation was determined as described above (n=4). […] Treatment with 50 ng/ml GDNF was used as a positive control (lane 5). The cells were lysed and Ret phosphorylation was analyzed as described above (n=3).
Cells were collected and lysed in RIPA buffer (50 mM Tris-Cl, pH 7.6, 150 mM NaCl, 1 % NP40, 0.1% SDS, 0.5% sodium deoxycholate, 2 mM EDTA, protease inhibitor cocktail and 10 mM sodium orthovanadate). Homogenates were incubated with 5 N^og anti-Ret antibody in TBS-T buffer (20 mM Tris-Cl, pH7.6, 137 mM NaCl and 1% NP-40) overnight at 4° C., followed by 2 hours incubation with Protein G agarose. […]

[2] = tested on: tyrosine hydroxylase (TH); experiment: Tyrosine hydroxylase (TH) protein levels in SHSY5Y cells; type: cell-based, human; details: 100 mM ethanol 24 hours, GDNF 100 ng/ml or ibogaine 10 μM added for last 12 hours
Procedure: Panel A: SHSY5Y cells were treated with different concentrations (0, 10, 25, and 100 mM) of ethanol for 24 hours. TH protein levels and control Actin levels were determined by Western blot analysis. Histogram depicts the mean ratio (TI/actin)±SD of 3 experiments. Panel B: Cells were treated with media (control), 100 ng/ml of GDNF for 12 h (lane 1), 100 mM ethanol for 24 hours (lane 2), or 100 mM ethanol for 24 hours to which 100 ng/ml GDNF was added for the last 12 hours (lane 3). The cells were lysed for Western blot analysis. Histogram depicts the mean ratio (TH/actin)±SD of 3 experiments. […] Histogram depicts the mean ratio (TH/actin)±SD of 3 experiments.

rats [3] = experiment: VTA microinjection of ibogaine, ethanol operant self-administration; type: in vivo, rat
Procedure: After ethanol self-administration was established as described above, subjects attained a mean daily intake of ethanol of 0.62±0.07 g/kg. Bilateral guide cannula (26 gauge, Plastics One) were implanted into the VTA (5.6 mm posterior to bregma, 1.0 mm mediolateral, 8.0 mm ventral to the skull surface). After 7 to 10 days recovery, sham injections were conducted prior to ethanol self-administration sessions to habituate subjects to the microinjection procedure. […] Injection cannulae were left in place for an additional 2 minutes to allow for diffusion of the drug. Three, 24 and 48 hours post injection, rats were placed into the self-administration chambers for a 1-hour self-administration session.

GDNF = GDNF secretion into medium of SHSY5Y cells (ELISA); type: cell-based, human; details: 10 μM
Text: GDNF secretion in the medium was detected using GDNF Emax Immunoassay System according to (Balkowiec and Katz, 2000). GDNF concentration was interpolated from the standard curves (linear range of 15.6-1000 pg/ml).

Male Long Evans rats = experiment: Ethanol and sucrose self-administration in the two-bottle preference test; type: in vivo, rat; details: ibogaine i.p.
Text: Male Long Evans rats were allowed continuous access to two bottles, one containing 10% ethanol (10 E) in tap water and the other containing tap water. […] Each subject received each dose, with one injection per week. Next, subjects were exposed to 2 bottles, one containing 10% sucrose (10 S) in tap water and the other containing tap water.

rats [4] = experiment: Ethanol reinstatement after extinction, systemic ibogaine; type: in vivo, rat; details: 40 mg/kg i.p., 3 hours before test
Text: The eight rats used in the operant self-administration study were also used to study ethanolseeking after a period of extinction. Following a period of stable responding for ethanol, rats underwent extinction in which no ethanol was delivered following active lever responses.

DBA mice = experiment: Conditioned place preference test (CPP); type: in vivo, mouse; details: ibogaine 40 mg/kg i.p. during CPP acquisition, before expression, or both
Procedure: The CPP apparatus (Med Associates) consisted of two visually distinctive conditioning compartments connected by a smaller center compartment. The CPP procedure consisted of three phases: preconditioning (Day 1), conditioning (Days 2-9), and post-conditioning (Day 10). On Day 1, mice were placed into the center compartment and allowed free access to both conditioning compartments for 30 minutes. […] Mice were given access to one conditioning chamber for 5 minutes immediately after injection or 3 h after injection. […] Control subjects received saline in both conditioning chambers. […] Ethanol treatment was followed by placement within one conditioning chamber, alternated with saline treatment and placement into the other conditioning chamber, as described above. On Day 10, animals were tested for CPP by allowing free access to both conditioning compartments for 30 minutes. Photocell counts provided a measure of locomotor activity as well as time spent in each compartment

rats [5] = experiment: Ethanol operant self-administration after systemic ibogaine; type: in vivo, rat; details: 40 mg/kg i.p., 3 hours prior to session
Text: Rats were water restricted, and then trained to lever press for a 10 S/10 E reinforcer solution in 3 overnight sessions. On the 4th day, rats were allowed ad libitum access to water in the home cage, and were transferred to 1-hour daily sessions wherein responses were reinforced with 5 S/10 E on a fixed-ratio 3 (FR3) schedule. Sucrose was phased out of the reinforcer solution over the next 7 days until the solution consisted of 10 E only. Experimental manipulations began after 30 sessions when stable 10 E intake of >0.4 g/kg ethanol was attained.

rats [6] = experiment: Intra-VTA minipump infusion of anti-GDNF neutralizing antibodies, ethanol self-administration after ibogaine; type: in vivo, rat; details: 3 hours after ibogaine 40 mg/kg i.p., control subjects (intra-VTA mouse IgG)
Procedure: An osmotic minipump (Alzet) was then connected to each of the two guide cannulae and was implanted subcutaneously for continuous infusion of either anti GDNF neutralizing antibodies (600 ng/12 N^ol/side/day) or mouse IgG (600 ng/12 μl/side/day).

12-methoxyibogamine [ibogaine]
duration of ERK1/2 activation (ERK1/2): up to 6 hours
phosphorylation of ERK1/2 (ERK1/2): induced
GFRα1 protein levels [1]: not due to increased GFRα1 protein levels
Ret association with GFRα1 [1]: increased
ethanol-induced increase in TH immunoreactivity [2]: inhibited
lever responding for ethanol (rats [3]; intra-VTA 0.1 μM, any tested time point): did not differ from responding following vehicle
lever presses for ethanol, return to baseline (rats [3]; intra-VTA 10 μM): did not return to baseline levels within 48 hours
lever responding for ethanol (rats [3]; intra-VTA 10 μM, 3, 24 and 48 hours, vs vehicle): significantly reduced responding at all time points
ethanol-paired lever pressing (rats [3]; intra-VTA 0.1, 1.0 and 10.0 μM/0.5 μl, 3 hours before session, dose-dependent): significantly decreased
GDNF levels in the media (secretion) (GDNF): accumulated in the media in a time-dependent manner
ethanol intake (Male Long Evans rats; continuous access to ethanol in home cage, measured 24 hours after injection): reduced
preference for ethanol (Male Long Evans rats; continuous access, 24 hours after injection): reduced
reinstatement of lever pressing for ethanol (rats [4]): reduced
rewarding properties of ethanol (ethanol-induced CPP) (DBA mice): not altered
responding at the ethanol-paired lever (rats [5]): decreased
decrease in responding for ethanol (rats [6]): 79.1%
